According to US12577234B2, “Antagonists of the muscarinic acetylcholine receptor M4” (Vanderbilt University, priority 2017, dated 2026):

Target: T1, human mAChR M4 (Homo sapiens, UniProt P08173)
T1 construct: expressed in transfected cells; host or cells: CHO-K1 (ATCC), stably co-expressing chimeric G protein Gqi5
T1 sequence (P08173 1-479): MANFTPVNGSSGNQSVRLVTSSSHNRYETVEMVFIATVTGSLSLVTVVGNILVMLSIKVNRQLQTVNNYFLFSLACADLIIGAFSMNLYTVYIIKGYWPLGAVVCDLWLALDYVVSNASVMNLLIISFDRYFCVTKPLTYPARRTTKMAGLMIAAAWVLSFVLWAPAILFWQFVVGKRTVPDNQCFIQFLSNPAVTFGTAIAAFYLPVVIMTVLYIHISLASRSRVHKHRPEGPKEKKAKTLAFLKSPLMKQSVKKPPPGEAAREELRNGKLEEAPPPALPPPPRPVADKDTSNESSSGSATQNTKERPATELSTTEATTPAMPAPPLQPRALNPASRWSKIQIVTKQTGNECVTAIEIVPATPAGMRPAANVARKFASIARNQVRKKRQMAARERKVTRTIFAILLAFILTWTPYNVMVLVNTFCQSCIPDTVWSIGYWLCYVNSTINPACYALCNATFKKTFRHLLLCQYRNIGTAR
Test: mAChR M4 cell-based functional assay (calcium mobilization, EC80 acetylcholine), human M4
Details: for IC50: M4/Gqi5/CHO-K1 cells, decrease of EC80 acetylcholine response; for Emin: human M4, % ACh maximum at 30 μM
Method in brief: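 CHO-K1 cells stably expressing human M4 with chimeric Gqi5; intracellular calcium rise read on FDSS as fluorescence static ratio at 1 Hz. Compounds in 10-point 1:3 dilution series; IC50 taken as concentration-dependent decrease of the EC80 acetylcholine response, four-parameter logistic fit.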

| SMILES | IC50 (Table 9) [nM] | Emin (Table 9) [%] | Human M4 Emin (Table 10) [%] | IC50 (Table 10) [nM] |
| --- | --- | --- | --- | --- |
| Fc1ccc(CN2C[C@H]3CC(COc4ccc(-c5cc(F)ccc5Cl)nn4)C[C@H]3C2)cc1 (stereo partly drawn) [Compound 116, (3aR,6aS)-5-[[6-(2-chloro-5-fluoro-phenyl)pyridazin-3-yl]oxymethyl]-2-[(4-fluorophenyl)methyl]-3,3a,4,5,6,6a-hexahydro-1H-cyclopenta[c]pyrrole] | 3380 | 6.49 | – | – |
| Fc1ccc(Cl)c(-c2ccc(OCC3C[C@@H]4CN(Cc5ccccn5)C[C@@H]4C3)nn2)c1 (stereo partly drawn) [Compound 117, (3aR,6aS)-5-[[6-(2-chloro-5-fluoro-phenyl)pyridazin-3-yl]oxymethyl]-2-(2-pyridylmethyl)-3,3a,4,5,6,6a-hexahydro-1H-cyclopenta[c]pyrrole] | 1460 | 4.82 | – | – |
| Cc1cccnc1CN1C[C@H]2CC(COc3ccc(-c4cc(F)ccc4Cl)nn3)C[C@H]2C1 (stereo partly drawn) [Compound 118, (3aR,6aS)-5-[[6-(2-chloro-5-fluoro-phenyl)pyridazin-3-yl]oxymethyl]-2-[(3-methyl-2-pyridyl)methyl]-3,3a,4,5,6,6a-hexahydro-1H-cyclopenta[c]pyrrole] | 694 | 2.25 | – | – |
| Fc1ccc(Cl)c(-c2ccc(OCC3C[C@@H]4CN(Cc5ccc6c(c5)OCO6)C[C@@H]4C3)nn2)c1 (stereo partly drawn) [Compound 119, (3aR,6aS)-2-(1,3-benzodioxol-5-ylmethyl)-5-[[6-(2-chloro-5-fluoro-phenyl)pyridazin-3-yl]oxymethyl]-3,3a,4,5,6,6a-hexahydro-1H-cyclopenta[c]pyrrole] | 668 | 4.24 | – | – |
| Cc1cnn(C)c1-c1ccc(NCCC2C[C@@H]3CN(CCC(C)(C)C)C[C@@H]3C2)nn1 (stereo partly drawn) [Compound 120, 6-(1,4-Dimethyl-1H-pyrazol-5-yl)-N-(2-((3aR,6aS)-2-(3,3-dimethylbutyl)octahydrocyclopenta[c]pyrrol-5-yl)ethyl)pyridazin-3-amine] | 2 | 3.48 | – | – |
| Cc1cnn(C)c1-c1ccc(NCCC2C[C@@H]3CN(CC45CC6CC(CC(C6)C4)C5)C[C@@H]3C2)nn1 (stereo partly drawn) [Compound 121, N-[2-[(3aR,6aS)-2-(1-adamantylmethyl)-3,3a,4,5,6,6a-hexahydro-1H-cyclopenta[c]pyrrol-5-yl]ethyl]-6-(2,4-dimethylpyrazol-3-yl)pyridazin-3-amine] | 47 | 3.59 | – | – |
| Cc1cnn(C)c1-c1ccc(NCCC2C[C@@H]3CN(CC4CCCOC4)C[C@@H]3C2)nn1 (stereo partly drawn) [Compound 122, N-[2-[(3aR,6aS)-2-(tetrahydropyran-3-ylmethyl)-3,3a,4,5,6,6a-hexahydro-1H-cyclopenta[c]pyrrol-5-yl]ethyl]-6-(2,4-dimethylpyrazol-3-yl)pyridazin-3-amine] | 27.3 | 4.29 | – | – |
| Cc1cnn(C)c1-c1ccc(NCCC2C[C@@H]3CN(CC4CC5C=CC4C5)C[C@@H]3C2)nn1 (stereo partly drawn) [Compound 123, N-[2-[(3aR,6aS)-2-(5-bicyclo[2.2.1]hept-2-enylmethyl)-3,3a,4,5,6,6a-hexahydro-1H-cyclopenta[c]pyrrol-5-yl]ethyl]-6-(2,4-dimethylpyrazol-3-yl)pyridazin-3-amine] | 6.2 | 2.16 | – | – |
| Cc1cccnc1CN1C[C@H]2CC(CCNc3ccc(-c4c(C)cnn4C)nn3)C[C@H]2C1 (stereo partly drawn) [Compound 124, N-[2-[(3aR,6aS)-2-[(3-methyl-2-pyridyl)methyl]-3,3a,4,5,6,6a-hexahydro-1H-cyclopenta[c]pyrrol-5-yl]ethyl]-6-(2,4-dimethylpyrazol-3-yl)pyridazin-3-amine] | 20.6 | 3.25 | – | – |
| Cc1cnn(C)c1-c1ccc(NCCC2C[C@@H]3CN(CC4CCOCC4)C[C@@H]3C2)nn1 (stereo partly drawn) [Compound 125, N-[2-[(3aR,6aS)-2-(tetrahydropyran-4-ylmethyl)-3,3a,4,5,6,6a-hexahydro-1H-cyclopenta[c]pyrrol-5-yl]ethyl]-6-(2,4-dimethylpyrazol-3-yl)pyridazin-3-amine] | 28.7 | 4.41 | – | – |
| Cc1cnn(C)c1-c1ccc(NCCC2C[C@@H]3CN(Cc4ccccc4)C[C@@H]3C2)nn1 (stereo partly drawn) [Compound 126, N-[2-[(3aR,6aS)-2-benzyl-3,3a,4,5,6,6a-hexahydro-1H-cyclopenta[c]pyrrol-5-yl]ethyl]-6-(2,4-dimethylpyrazol-3-yl)pyridazin-3-amine] | 23 | 3.89 | – | – |
| Cc1cnn(C)c1-c1ccc(NCCC2C[C@@H]3CN(Cc4ccccc4F)C[C@@H]3C2)nn1 (stereo partly drawn) [Compound 127, N-[2-[(3aR,6aS)-2-[(2-fluorophenyl)methyl]-3,3a,4,5,6,6a-hexahydro-1H-cyclopenta[c]pyrrol-5-yl]ethyl]-6-(2,4-dimethylpyrazol-3-yl)pyridazin-3-amine] | 57.8 | 4.93 | – | – |
| CC(=O)Nc1ccc(-c2ccc(O[C@H]3C[C@@H]4CN(CC5CCCCC5)C[C@@H]4C3)nn2)cc1 [Compound 130, N-[4-[6-[[(3aR,5s,6aS)-2-(cyclohexylmethyl)-3,3a,4,5,6,6a-hexahydro-1H-cyclopenta[c]pyrrol-5-yl]oxy]pyridazin-3-yl]phenyl]acetamide] | – | – | 3 | 58.3 |
| CC(=O)Nc1ccc(-c2ccc(O[C@H]3C[C@@H]4CN(Cc5ccc(F)cc5)C[C@@H]4C3)nn2)cc1 [Compound 131, N-[4-[6-[[(3aR,5s,6aS)-2-[(4-fluorophenyl)methyl]-3,3a,4,5,6,6a-hexahydro-1H-cyclopenta[c]pyrrol-5-yl]oxy]pyridazin-3-yl]phenyl]acetamide] | – | – | 3 | 977 |
| CC(=O)Nc1ccc(-c2ccc(O[C@H]3C[C@@H]4CN(Cc5ncccc5C)C[C@@H]4C3)nn2)cc1 [Compound 133, N-[4-[6-[[(3aR,5s,6aS)-2-[(3-methyl-2-pyridyl)methyl]-3,3a,4,5,6,6a-hexahydro-1H-cyclopenta[c]pyrrol-5-yl]oxy]pyridazin-3-yl]phenyl]acetamide] | – | – | 5 | 1070 |
| Cc1nn(C)cc1-c1ccc(O[C@H]2C[C@@H]3CN(CCC(C)(C)C)C[C@@H]3C2)nn1 [Compound 134, (3aR,5s,6aS)-2-(3,3-dimethylbutyl)-5-[6-(1,3-dimethylpyrazol-4-yl)pyridazin-3-yl]oxy-3,3a,4,5,6,6a-hexahydro-1H-cyclopenta[c]pyrrole] | – | – | 4 | 17.3 |
| Cc1cnn(C)c1-c1ccc(O[C@H]2C[C@@H]3CN(CCC(C)(C)C)C[C@@H]3C2)nn1 [Compound 135, (3aR,5s,6aS)-2-(3,3-dimethylbutyl)-5-[6-(2,4-dimethylpyrazol-3-yl)pyridazin-3-yl]oxy-3,3a,4,5,6,6a-hexahydro-1H-cyclopenta[c]pyrrole] | – | – | 5 | 287 |
| Cc1noc(C)c1-c1ccc(O[C@H]2C[C@@H]3CN(CCC(C)(C)C)C[C@@H]3C2)nn1 [Compound 136, 4-[6-[[(3aR,5s,6aS)-2-(3,3-dimethylbutyl)-3,3a,4,5,6,6a-hexahydro-1H-cyclopenta[c]pyrrol-5-yl]oxy]pyridazin-3-yl]-3,5-dimethyl-isoxazole] | – | – | 3 | 174 |
| CC(C)(C)CCN1C[C@H]2C[C@H](Oc3ccc(-c4ccc(C(F)(F)F)cc4)nn3)C[C@H]2C1 [Compound 139, (3aR,5s,6aS)-2-(3,3-dimethylbutyl)-5-[6-[4-(trifluoromethyl)phenyl]pyridazin-3-yl]oxy-3,3a,4,5,6,6a-hexahydro-1H-cyclopenta[c]pyrrole] | – | – | 4 | 1560 |
| Cc1noc(C)c1-c1ccc(N[C@H]2C[C@@H]3CN(CCC(C)(C)C)C[C@@H]3C2)nn1 [Compound 142, (3aR,5s,6aS)-2-(3,3-dimethylbutyl)-N-[6-(3,5-dimethylisoxazol-4-yl)pyridazin-3-yl]-3,3a,4,5,6,6a-hexahydro-1H-cyclopenta[c]pyrrol-5-amine] | – | – | 6 | 1.82 |
| CC(C)(C)CCN1C[C@H]2C[C@H](Nc3ccc(N4CCOCC4)nn3)C[C@H]2C1 [Compound 143, (3aR,5s,6aS)-2-(3,3-dimethylbutyl)-N-(6-morpholinopyridazin-3-yl)-3,3a,4,5,6,6a-hexahydro-1H-cyclopenta[c]pyrrol-5-amine] | – | – | 6 | 5020 |
| Cc1cnn(C)c1-c1ccc(NC(=O)[C@@H]2C[C@@H]3CN(CCC(C)(C)C)C[C@@H]3C2)nn1 [Compound 144, (3aR,5r,6aS)-2-(3,3-dimethylbutyl)-N-[6-(2,4-dimethylpyrazol-3-yl)pyridazin-3-yl]-3,3a,4,5,6,6a-hexahydro-1H-cyclopenta[c]pyrrole-5-carboxamide] | – | – | 5 | 405 |
| Cc1cnn(C)c1-c1ccc(NC(=O)[C@H]2C[C@@H]3CN(CCC(C)(C)C)C[C@@H]3C2)nn1 [Compound 145, (3aR,5s,6aS)-2-(3,3-dimethylbutyl)-N-[6-(2,4-dimethylpyrazol-3-yl)pyridazin-3-yl]-3,3a,4,5,6,6a-hexahydro-1H-cyclopenta[c]pyrrole-5-carboxamide] | – | – | 4 | 239 |
